Data taken from PubChem BioAssay AID1963844 (Molecular Pharmacology Branch, DTP, NCI, 2024).

Tested on: 422866-222-R5-J1-PDC complex spheroid viability
Assay: Anticancer human tumor 422866-222-R5-J1-PDC patient-derived pancreatic adenocarcinoma cell line growth inhibition [POLQ]
Details: for IC50: curve of first compound; for viability, T/C: stronger effect = lower value
Outline: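 Growth inhibition in 3D: complex spheroids (tumor PDC, HUVEC, MSC) treated with POLQ inhibitor combinations; where Cmax unknown, highest tested concentration 10 microM, except SN-38 at 1 microM.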

[1] = second compound 0.0316 µM, first compound 0.0316 µM
[2] = second compound 0.0316 µM, first compound 0.1 µM
[3] = second compound 0.0316 µM, first compound 0.316 µM
[4] = second compound 0.0316 µM, first compound 1 µM
[5] = second compound 0.0316 µM, first compound 3.16 µM
[6] = second compound 0.0316 µM, first compound 10 µM
[7] = second compound 0.1 µM, first compound 0.0316 µM
[8] = second compound 0.1 µM, first compound 0.1 µM
[9] = second compound 0.1 µM, first compound 0.316 µM
[10] = second compound 0.1 µM, first compound 1 µM
[11] = second compound 0.1 µM, first compound 3.16 µM
[12] = second compound 0.1 µM, first compound 10 µM
[13] = second compound 0.316 µM, first compound 0.0316 µM
[14] = second compound 0.316 µM, first compound 0.1 µM
[15] = second compound 0.316 µM, first compound 0.316 µM
[16] = second compound 0.316 µM, first compound 1 µM
[17] = second compound 0.316 µM, first compound 3.16 µM
[18] = second compound 0.316 µM, first compound 10 µM
[19] = second compound 1 µM, first compound 0.0316 µM
[20] = second compound 1 µM, first compound 0.1 µM
[21] = second compound 1 µM, first compound 0.316 µM
[22] = second compound 1 µM, first compound 1 µM
[23] = second compound 1 µM, first compound 3.16 µM
[24] = second compound 1 µM, first compound 10 µM
[25] = second compound 3.16 µM, first compound 0.0316 µM
[26] = second compound 3.16 µM, first compound 0.1 µM
[27] = second compound 3.16 µM, first compound 0.316 µM
[28] = second compound 3.16 µM, first compound 1 µM
[29] = second compound 3.16 µM, first compound 3.16 µM
[30] = second compound 3.16 µM, first compound 10 µM
[31] = second compound 10 µM, first compound 0.0316 µM
[32] = second compound 10 µM, first compound 0.1 µM
[33] = second compound 10 µM, first compound 0.316 µM
[34] = second compound 10 µM, first compound 1 µM
[35] = second compound 10 µM, first compound 3.16 µM
[36] = second compound 10 µM, first compound 10 µM
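Note: spheroids exposed to compounds for one week before readout.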
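Throughout, for viability, T/C: percent of DMSO vehicle wells luminescence so 100% = untreated viability.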

## CNCc1ccc(-c2[nH]c3cc(F)cc4c3c2CCNC4=O)cc1 + Nc1ccc(C#CCN(C(=O)Cc2ncc(C(F)(F)F)cc2C(F)(F)F)c2ccc(F)cc2)nn1
Second compound 0.0316 µM
  IC50: > 10 µM
Second compound 0.1 µM
  IC50: > 10 µM
Second compound 0.316 µM
  IC50: > 10 µM
Second compound 1 µM
  IC50: > 10 µM
Second compound 3.16 µM
  IC50: > 10 µM
Second compound 10 µM
  IC50: > 10 µM
[1]
  viability, T/C: 78.7%
[2]
  viability, T/C: 93.6%
[3]
  viability, T/C: 77.7%
[4]
  viability, T/C: 104%
[5]
  viability, T/C: 78.8%
[6]
  viability, T/C: 76.6%
[7]
  viability, T/C: 106%
[8]
  viability, T/C: 87.5%
[9]
  viability, T/C: 92.4%
[10]
  viability, T/C: 107%
[11]
  viability, T/C: 80.6%
[12]
  viability, T/C: 82.8%
[13]
  viability, T/C: 87.4%
[14]
  viability, T/C: 109%
[15]
  viability, T/C: 97.1%
[16]
  viability, T/C: 101%
[17]
  viability, T/C: 72.1%
[18]
  viability, T/C: 79.5%
[19]
  viability, T/C: 89.4%
[20]
  viability, T/C: 89.9%
[21]
  viability, T/C: 93%
[22]
  viability, T/C: 91.9%
[23]
  viability, T/C: 73.5%
[24]
  viability, T/C: 63%
[25]
  viability, T/C: 100%
[26]
  viability, T/C: 96.4%
[27]
  viability, T/C: 105%
[28]
  viability, T/C: 89.7%
[29]
  viability, T/C: 87.4%
[30]
  viability, T/C: 81.9%
[31]
  viability, T/C: 96.1%
[32]
  viability, T/C: 109%
[33]
  viability, T/C: 89.8%
[34]
  viability, T/C: 64.7%
[35]
  viability, T/C: 79%
[36]
  viability, T/C: 69%

## CCc1cc2c(N3CCc4c(cc(Cn5ccnc5)cc4-c4cn(C)nc4C(F)(F)F)C3=O)cc(C)nc2c(OC)n1 + COC1C(OC(N)=O)C(O)C(Oc2ccc3c(O)c(NC(=O)c4ccc(O)c(CC=C(C)C)c4)c(=O)oc3c2C)OC1(C)C
Second compound 0.0316 µM
  IC50: > 10 µM
Second compound 0.1 µM
  IC50: > 10 µM
Second compound 0.316 µM
  IC50: > 10 µM
Second compound 1 µM
  IC50: > 10 µM
Second compound 3.16 µM
  IC50: > 10 µM
Second compound 10 µM
  IC50: > 10 µM
[1]
  viability, T/C: 96.1%
[2]
  viability, T/C: 95.7%
[3]
  viability, T/C: 92.4%
[4]
  viability, T/C: 129%
[5]
  viability, T/C: 125%
[6]
  viability, T/C: 119%
[7]
  viability, T/C: 100%
[8]
  viability, T/C: 88.8%
[9]
  viability, T/C: 94.6%
[10]
  viability, T/C: 126%
[11]
  viability, T/C: 110%
[12]
  viability, T/C: 93.7%
[13]
  viability, T/C: 93.7%
[14]
  viability, T/C: 94.5%
[15]
  viability, T/C: 108%
[16]
  viability, T/C: 102%
[17]
  viability, T/C: 102%
[18]
  viability, T/C: 111%
[19]
  viability, T/C: 97.7%
[20]
  viability, T/C: 98%
[21]
  viability, T/C: 96.5%
[22]
  viability, T/C: 92.8%
[23]
  viability, T/C: 121%
[24]
  viability, T/C: 108%
[25]
  viability, T/C: 102%
[26]
  viability, T/C: 101%
[27]
  viability, T/C: 123%
[28]
  viability, T/C: 106%
[29]
  viability, T/C: 123%
[30]
  viability, T/C: 116%
[31]
  viability, T/C: 102%
[32]
  viability, T/C: 85.6%
[33]
  viability, T/C: 106%
[34]
  viability, T/C: 95.1%
[35]
  viability, T/C: 109%
[36]
  viability, T/C: 102%

## O=C(Nc1ccc(O)c(NS(=O)(=O)c2ccc(F)cc2)c1)c1ccc(-c2ccccc2)cc1 + Cc1cccc(N(C)C(=O)C2C(O)CCN2c2nc(C)cc(C(F)(F)F)c2C#N)c1
Second compound 0.0316 µM
  IC50: > 10 µM
Second compound 0.1 µM
  IC50: > 10 µM
Second compound 0.316 µM
  IC50: > 10 µM
Second compound 1 µM
  IC50: > 10 µM
Second compound 3.16 µM
  IC50: > 10 µM
Second compound 10 µM
  IC50: > 10 µM
[1]
  viability, T/C: 94.2%
[2]
  viability, T/C: 89.3%
[3]
  viability, T/C: 73.9%
[4]
  viability, T/C: 89.3%
[5]
  viability, T/C: 99.8%
[6]
  viability, T/C: 121%
[7]
  viability, T/C: 85.4%
[8]
  viability, T/C: 89.8%
[9]
  viability, T/C: 89%
[10]
  viability, T/C: 91.3%
[11]
  viability, T/C: 95.5%
[12]
  viability, T/C: 116%
[13]
  viability, T/C: 94.3%
[14]
  viability, T/C: 99%
[15]
  viability, T/C: 90.9%
[16]
  viability, T/C: 101%
[17]
  viability, T/C: 90.7%
[18]
  viability, T/C: 106%
[19]
  viability, T/C: 96%
[20]
  viability, T/C: 94.5%
[21]
  viability, T/C: 99.2%
[22]
  viability, T/C: 88.9%
[23]
  viability, T/C: 86.3%
[24]
  viability, T/C: 113%
[25]
  viability, T/C: 97.2%
[26]
  viability, T/C: 91.8%
[27]
  viability, T/C: 89.2%
[28]
  viability, T/C: 92.9%
[29]
  viability, T/C: 94.2%
[30]
  viability, T/C: 118%
[31]
  viability, T/C: 71.9%
[32]
  viability, T/C: 82.3%
[33]
  viability, T/C: 87.3%
[34]
  viability, T/C: 86.8%
[35]
  viability, T/C: 97.6%
[36]
  viability, T/C: 103%
